Measured values: article PMC12511262 (European Journal of Clinical Pharmacology, 2025)
Read-outs that look alike come from different tables or passages of the source.

Columns and labels:
[1] = Population pharmacokinetic model of quizartinib (NONMEM v7.5) applied to the external evaluation dataset; type: in vivo, human; details: popPK estimates
Description: Parameter values and covariate relationships were fixed according to those reported in the original publication, without any re-estimation or modification. Key model parameters were described at Table 2: Predictions were generated using recorded doses, sampling times, and covariate values from the evaluation dataset.

[2] = single oral dose of 60 mg [14C]-quizartinib, six healthy men; cited from earlier work
[3] = FLT3-ITD negative AML patients, steady state

- bioavailability ([1]; human, plasma, oral, FLT3-ITD negative AML patients, steady state, read-out: F1 Bioavailability, Mean): 77%
- bioavailability ([1]; human, plasma, oral, FLT3-ITD negative AML patients, steady state, read-out: F1 Bioavailability, Median): 75%
- Vd ([1]; human, plasma, oral, FLT3-ITD negative AML patients, steady state, read-out: V2 Volume of distribution (central compartment), Mean): 219 L
- Vd ([1]; human, plasma, oral, FLT3-ITD negative AML patients, steady state, read-out: V2 Volume of distribution (central compartment), Median): 227 L
- half-life ([1]; human, plasma, oral, FLT3-ITD negative AML patients, steady state, read-out: t1/2 Half-life, Mean (converted)): 82.4 h
- half-life ([1]; human, plasma, oral, FLT3-ITD negative AML patients, steady state, read-out: t1/2 Half-life, Median (converted)): 82.5 h
- bioavailability ([1]; human, plasma, oral, median, read-out: bioavailability factor (F1), median): 75%
- clearance ([1]; human, plasma, oral, median, read-out: median clearance (CL) (converted)): 29.3 mL/min
- CL Clearance, Median [1, 3]: 1.76
- KA Absorption rate constant, Mean [1, 3]: 1.68
- KA Absorption rate constant, Median [1, 3]: 1.68
- KE Elimination rate constant, Mean [1, 3]: 0.01
- KE Elimination rate constant, Median [1, 3]: 0.01
- CL Clearance, Mean ([1]; FLT3-ITD negative AML patients, steady state, oral quizartinib 30 mg daily with food (one patient 60 mg)): 1.97
- V3 (peripheral compartment), median ([1]; median): 176.03 L
- V4, median ([1]; median): 39.30 L
SMILES: CC(C)(C)c1cc(NC(=O)Nc2ccc(-c3cn4c(n3)sc3cc(OCCN5CCOCC5)ccc34)cc2)no1 [quizartinib]
- time of maximum blood concentration post-dosing [2]: four
